Measured values: US20260262643A1, “HERBICIDAL BENZOXAZINES” (FMC CORPORATION, priority 2022, published 2026)

Key:
wheat [1] = test: Test C preemergence; type: in vivo, Triticum aestivum
Outline: (§1)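 Seeds sown in loam soil–sand blend received a directed preemergence soil spray of test chemical in non-phytotoxic solvent with surfactant; postemergence plants (2–10 cm, one- to two-leaf stage) were sprayed with the same formulation. Greenhouse-held 10 days, then visually rated for injury versus untreated controls, 0 (no effect) to 100 (complete control).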

barnyardgrass [2] = test: Test C preemergence; type: in vivo, Echinochloa crusgalli
Outline: as §1

corn [3] = test: Test C preemergence; type: in vivo, Zea mays
Outline: as §1

foxtail, giant [4] = test: Test C postemergence; type: in vivo, Setaria faberi; details: 10 days, 0 to 100 scale (0 no effect, 100 complete control)
Outline: as §1

pigweed, palmer [5] = test: Test C postemergence; type: in vivo, Amaranthus palmeri; details: 10 days, 0 to 100 scale (0 no effect, 100 complete control)
Outline: as §1

soybean [6] = test: Test C postemergence; type: in vivo, Glycine max; details: 10 days, 0 to 100 scale (0 no effect, 100 complete control)
Outline: as §1

galium = test: Test C postemergence; type: in vivo, Galium aparine; details: 10 days, 0 to 100 scale (0 no effect, 100 complete control)
Outline: as §1

rice = test: Test D flooded paddy test; type: in vivo, Oryza sativa; details: 250 g ai/ha, applied to paddy water, visual rating after 13 to 14 days, scale 0 to 100 (0 no effect, 100 complete control)
Outline: (§2)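 Compounds go straight into paddy water over 2-leaf plants in pots flooded to 3 cm. Greenhouse holding lasts 13 to 14 days. Injury is scored by eye against controls from 0 (none) to 100 (complete control).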

soybean [7] = test: Test C preemergence; type: in vivo, Glycine max
Outline: as §1

oat, wild [8] = test: Test C preemergence; type: in vivo, Avena fatua
Outline: as §1

ragweed [9] = test: Test C postemergence; type: in vivo, Ambrosia artemisiifolia; details: 10 days, 0 to 100 scale (0 no effect, 100 complete control)
Outline: as §1

ragweed [10] = test: Test C preemergence; type: in vivo, Ambrosia artemisiifolia
Outline: as §1

corn [11] = test: Test C postemergence; type: in vivo, Zea mays; details: 10 days, 0 to 100 scale (0 no effect, 100 complete control)
Outline: as §1

oat, wild [12] = test: Test C postemergence; type: in vivo, Avena fatua; details: 10 days, 0 to 100 scale (0 no effect, 100 complete control)
Outline: as §1

ducksalad = test: Test D flooded paddy test; type: in vivo, Heteranthera limosa; details: 250 g ai/ha, applied to paddy water, visual rating after 13 to 14 days, scale 0 to 100 (0 no effect, 100 complete control)
Outline: as §2

blackgrass [13] = test: Test C postemergence; type: in vivo, Alopecurus myosuroides; details: 10 days, 0 to 100 scale (0 no effect, 100 complete control)
Outline: as §1

kochia [14] = test: Test C preemergence; type: in vivo, Bassia scoparia
Outline: as §1

wheat [15] = test: Test C postemergence; type: in vivo, Triticum aestivum; details: 10 days, 0 to 100 scale (0 no effect, 100 complete control)
Outline: as §1

blackgrass [16] = test: Test C preemergence; type: in vivo, Alopecurus myosuroides
Outline: as §1

kochia [17] = test: Test C postemergence; type: in vivo, Bassia scoparia; details: 10 days, 0 to 100 scale (0 no effect, 100 complete control)
Outline: as §1

barnyardgrass [18] = test: Test C postemergence; type: in vivo, Echinochloa crusgalli; details: 10 days, 0 to 100 scale (0 no effect, 100 complete control)
Outline: as §1

foxtail, giant [19] = test: Test C preemergence; type: in vivo, Setaria faberi
Outline: as §1

sedge, umbrella = test: Test D flooded paddy test; type: in vivo, Cyperus difformis; details: 250 g ai/ha, applied to paddy water, visual rating after 13 to 14 days, scale 0 to 100 (0 no effect, 100 complete control)
Outline: as §2

horseweed = test: Test C postemergence; type: in vivo, Erigeron canadensis; details: 10 days, 0 to 100 scale (0 no effect, 100 complete control)
Outline: as §1

ryegrass, Italian [20] = test: Test C preemergence; type: in vivo, Lolium multiflorum
Outline: as §1

ryegrass, Italian [21] = test: Test C postemergence; type: in vivo, Lolium multiflorum; details: 10 days, 0 to 100 scale (0 no effect, 100 complete control)
Outline: as §1

barnyardgrass [22] = test: Test D flooded paddy test; type: in vivo, Echinochloa crus-galli; details: 250 g ai/ha, applied to paddy water, visual rating after 13 to 14 days, scale 0 to 100 (0 no effect, 100 complete control)
Outline: as §2

pigweed, palmer [23] = test: Test C preemergence; type: in vivo, Amaranthus palmeri
Outline: as §1

[24] = 500 g ai/ha, preemergence, 0 to 100 scale (0 no effect, 100 complete control)
[25] = Preemergence, 125 g ai/ha, 0 to 100 scale, 0 no effect, 100 complete control

CCc1ncn(-c2cc(C(=O)N3CC(C(F)(F)F)Oc4c(Cl)cccc43)ccn2)n1 (racemic) [Compound 334]
Wheat plant response rating (wheat [1]; [24]): 20
Plant response rating, Wheat (wheat [1]; [25]): 0
Barnyardgrass plant response rating (barnyardgrass [2]; [24]): 100
Plant response rating, Barnyardgrass (barnyardgrass [2]; [25]): 60
Corn plant response rating (corn [3]; [24]): 50
Plant response rating, Corn (corn [3]; [25]): 0
Plant response rating, Foxtail, Giant (foxtail, giant [4]; 500 g ai/ha, postemergence): 90
Plant response rating, Foxtail, Giant (foxtail, giant [4]; Postemergence, 125 g ai/ha): 70
Plant response rating, Pigweed, Palmer (pigweed, palmer [5]; 500 g ai/ha, postemergence): 50
Plant response rating, Pigweed, Palmer (pigweed, palmer [5]; Postemergence, 125 g ai/ha): 30
Plant response rating, Soybean (soybean [6]; 500 g ai/ha, postemergence): 100
Plant response rating, Soybean (soybean [6]; Postemergence, 125 g ai/ha): 100
Plant response rating, Galium (galium; 500 g ai/ha, postemergence): 100
Plant response rating, Galium (galium; Postemergence, 125 g ai/ha): 100
Plant response rating, Rice (Flood) (rice): 0
Soybean plant response rating (soybean [7]; [24]): 60
Plant response rating, Soybean (soybean [7]; [25]): 0
Oat, Wild plant response rating (oat, wild [8]; [24]): 30
Plant response rating, Oat, Wild (oat, wild [8]; [25]): 0
Plant response rating, Ragweed (ragweed [9]; 500 g ai/ha, postemergence): 60
Plant response rating, Ragweed (ragweed [9]; Postemergence, 125 g ai/ha): 0
Ragweed plant response rating (ragweed [10]; [24]): 30
Plant response rating, Ragweed (ragweed [10]; [25]): 0
Plant response rating, Corn (corn [11]; 500 g ai/ha, postemergence): 90
Plant response rating, Corn (corn [11]; Postemergence, 125 g ai/ha): 40
Plant response rating, Oat, Wild (oat, wild [12]; 500 g ai/ha, postemergence): 40
Plant response rating, Oat, Wild (oat, wild [12]; Postemergence, 125 g ai/ha): 10
Plant response rating, Ducksalad (Flood) (ducksalad): 30
Plant response rating, Blackgrass (blackgrass [13]; 500 g ai/ha, postemergence): 80
Plant response rating, Blackgrass (blackgrass [13]; Postemergence, 125 g ai/ha): 40
Kochia plant response rating (kochia [14]; [24]): 80
Plant response rating, Kochia (kochia [14]; [25]): 40
Plant response rating, Wheat (wheat [15]; 500 g ai/ha, postemergence): 50
Plant response rating, Wheat (wheat [15]; Postemergence, 125 g ai/ha): 20
Blackgrass plant response rating (blackgrass [16]; [24]): 90
Plant response rating, Blackgrass (blackgrass [16]; [25]): 80
Plant response rating, Kochia (kochia [17]; 500 g ai/ha, postemergence): 80
Plant response rating, Kochia (kochia [17]; Postemergence, 125 g ai/ha): 80
Plant response rating, Barnyardgrass (barnyardgrass [18]; 500 g ai/ha, postemergence): 90
Plant response rating, Barnyardgrass (barnyardgrass [18]; Postemergence, 125 g ai/ha): 20
Foxtail, Giant plant response rating (foxtail, giant [19]; [24]): 100
Plant response rating, Foxtail, Giant (foxtail, giant [19]; [25]): 90
Plant response rating, Sedge, Umbrella (Flood) (sedge, umbrella): 70
Plant response rating, Horseweed (horseweed; 500 g ai/ha, postemergence): 40
Plant response rating, Horseweed (horseweed; Postemergence, 125 g ai/ha): 0
Ryegrass, Italian plant response rating (ryegrass, Italian [20]; [24]): 90
Plant response rating, Ryegrass, Italian (ryegrass, Italian [20]; [25]): 70
Plant response rating, Ryegrass, Italian (ryegrass, Italian [21]; 500 g ai/ha, postemergence): 70
Plant response rating, Ryegrass, Italian (ryegrass, Italian [21]; Postemergence, 125 g ai/ha): 50
Plant response rating, Barnyardgrass (Flood) (barnyardgrass [22]): 10
Pigweed, Palmer plant response rating (pigweed, palmer [23]; [24]): 100
Plant response rating, Pigweed, Palmer (pigweed, palmer [23]; [25]): 90
